Assay results reported in Sander's compilation of Henry's law constants (doi:10.1002/etc.5620180906).

Assay: Henry solubility constant Hcp at 298.15 K (mol/(m3 Pa))
Conditions: reference: Bamford et al. (1999a)

Row | SMILES | Henry solubility constant Hcp
1 | Cc1cccc2ccccc12 [1-methylnaphthalene] | 0.021
2 | Cc1ccc2ccccc2c1 [2-methylnaphthalene] | 0.019
3 | c1cc2c3c(cccc3c1)CC2 [acenaphthene] | 0.054
4 | C1=Cc2cccc3cccc1c23 [acenaphthylene] | 0.079
5 | c1ccc2c(c1)Cc1c-2ccc2ccccc12 [benzo[a]fluorene] | 0.37
6 | c1ccc2c(c1)-c1cccc3cccc-2c13 [benzo[jk]fluorene] | 0.51

Next, values leading:

Row | Henry solubility constant Hcp | SMILES
7 | 0.2 | Cc1cccc2c1ccc1ccccc12 [1-methylphenanthrene]
8 | 0.1 | c1ccc2c(c1)Cc1ccccc1-2 [2,3-benzindene]
9 | 0.18 | c1ccc2cc3ccccc3cc2c1 [anthracene]
10 | 1.9 | c1ccc2c(c1)ccc1c3ccccc3ccc21 [chrysene]
11 | 0.23 | c1ccc2c(c1)ccc1ccccc12 [phenanthrene]
